Source: US7056491B2, “Monoterpenes and sesquiterpenes as chemotherapeutic and radiation sensitizers and immunomodulators” (Wisconsin Alumni Research Foundation, priority 2000, dated 2006)

Key:
Format in all cases: cell-based, human
MO59K cells = assay: Clonogenic survival assay, POH with or without radiation, MO59K; settings: for % SURVIVAL: MO59K
Method: (§1) Subconfluent cultures of human glioma cell line MO 59K were treated with 0.1–0.5 mM of POH for 72 hours and subsequently to increasing doses of radiation from 0.1 Gy to 8.5 Gy. Control cells were treated with the indicated doses of radiation alone. The cells were harvested and an optimum number of cells were allowed to grow for 14 days. The resulting colonies were stained and counted. Each graphed point represents mean values ± SE values of triplicate dishes.
(§2) Table 1 summarizing data from different cell lines treated with radiation, radiation plus POH, and POH alone. Subconfluent cultures of human glioma (T98G, M059K, U251), prostate (DU145, PC3), colon (DLD-1, HT29) and pancreatic (MIAPACA) cancer cell lines were treated with 0.1–0.5 mM of POH for 72 hours and subsequently to increasing doses of radiation from 0.1 Gy to 8.5 Gy. Control cells were treated with medium alone. The cells were harvested and an optimum number of cells were allowed to grow for 14 days. The resulting colonies were stained and counted. Each graphed point represents mean values ± SE values of triplicate dishes. Percentage survival was determined as the ratio of plating efficiencies for each irradiated group to that of the unirradiated control.

[1] = tested on: DU145 prostate cancer cells; assay: Clonogenic survival assay, POH with or without radiation, DU145
Method: as §1, with “prostate cancer” for “human glioma”, “DU145” for “MO 59K”
as §2

DLD-1 colon cancer cells = assay: Clonogenic survival assay, POH with or without radiation, DLD-1
Method: as §2

Question: Which results are given for C=C(C)[C@@H]1CC=C(CO)CC1 [POH, Perillyl alcohol]?
Answer: radiosensitization (MO59K cells; M059K, cells not initially radiation resistant, 0.1–0.5 mM POH 72 h): lack of radiosensitization; % SURVIVAL (MO59K cells; 0.1 mM POH 72 h, no radiation): 0.939 ± 0.005%; % SURVIVAL (MO59K cells; 0.1 mM POH + 5.5 Gy): 0.061 ± 0.007%; % SURVIVAL (MO59K cells; 0.3 mM POH 72 h, no radiation): 0.660 ± 0.020%; % SURVIVAL (MO59K cells; 0.3 mM POH + 5.5 Gy): 0.080 ± 0.015%; % SURVIVAL (MO59K cells; 0.5 mM POH 72 h, no radiation): 0.623 ± 0.009%; % SURVIVAL (MO59K cells; 0.5 mM POH + 5.5 Gy): 0.056 ± 0.006%; % SURVIVAL ([1]; 0.1 mM POH 72 h, no radiation): 0.648 ± 0.008%; % SURVIVAL ([1]; 0.1 mM POH + 5.5 Gy): 0.044 ± 0.00157%; % SURVIVAL ([1]; 0.3 mM POH 72 h, no radiation): 0.456 ± 0.0112%; % SURVIVAL ([1]; 0.3 mM POH + 5.5 Gy): 0.026 ± 0.00076%; % SURVIVAL ([1]; 0.5 mM POH 72 h, no radiation): 0.207 ± 0.005%; % SURVIVAL ([1]; 0.5 mM POH + 5.5 Gy): 0.017 ± 0.005%; % SURVIVAL (DLD-1 colon cancer cells; 0.1 mM POH 72 h, no radiation): 1.690 ± 0.100%; % SURVIVAL (DLD-1 colon cancer cells; 0.1 mM POH + 5.5 Gy): 0.038 ± 0.009%; % SURVIVAL (DLD-1 colon cancer cells; 0.3 mM POH 72 h, no radiation): 0.899 ± 0.070%; % SURVIVAL (DLD-1 colon cancer cells; 0.3 mM POH + 5.5 Gy): 0.050 ± 0.003%; % SURVIVAL (DLD-1 colon cancer cells; 0.5 mM POH 72 h, no radiation): 0.019 ± 0.001%; % SURVIVAL (DLD-1 colon cancer cells; 0.5 mM POH + 5.5 Gy): 0.001 ± 0.001%
